Experimental data as given in patent US12305217B2, “Ex vivo protease activity detection for disease detection/diagnostic, staging, monitoring and treatment” (Sunbird Bio, Inc., priority 2020, dated 2025).
Square brackets hold non-standard residues; d marks the D form. Primed or numbered codes have the meaning given here. Ends that are not written are not given here. CPQ2″ = quencher on the Lys side chain; FAM = fluorescent reporter; PEG2′ = not defined here; CPQ2 = quencher

How the values were obtained:
[1] = test system: NASH-related protease activity in K2EDTA plasma (cathepsin L); test: Inhibitor profiling of Probe #102 cleavage in healthy and NASH plasma; type: biochemical, mice; conditions: for effect of inhibitor on Probe #102 signal: NASH and healthy plasma
Experimental: For this experiment, all plasma samples were prepared individually and diluted 1/10e in PBS with inhibitor added directly to the samples. Inhibitor was prepared at 15× concentration to final. Substrates were diluted in DI water at 18 uM, such that the final concentration on the plate would be 6 uM. All samples were prepared such that their last dilution on the plate would not affect the desired final concentration. 10 ul of each individual sample was pipetted into their corresponding wells, and the plate was then spun down in the centrifuge at 1500 RPM for 30 seconds to coat the bottom of each well with the sample. 5 ul of the 18 uM substrate solution was pipetted into each well being used on a 384 well plate, and then the plate was spun down in the centrifuge at 1500 rpm for 30 seconds. The plate was placed immediately in the plate reader at 37° C. for a 30-minute-long fluorescence kinetic read at 485/535 extended gain.
To assess the proteolytic cleavage pattern of Probe #102, samples were tested using a pool of broad inhibitors for serine, cysteine, threonine, MMP and aspartic protease family members (broad inhibitor) to assess general protease activity, AEBSF for serine proteases, E64 for cysteine proteases, CTSi for broad cathepsin inhibition of cathepsins L, S, K and B, or specific inhibitors for cathepsin K (L00625), for cathepsin L (SID) or cathepsin B (CA074).

[2] = test system: cathepsin and/or MMP protease activities; test: Ex vivo probe cleavage in plasma of healthy, NASH regression and NASH progression mice; type: biochemical; conditions: K2EDTA plasma collected at 20 weeks
Description: Plasma samples were collected from all animals at 20 weeks.
The probes showing the most differentiation in NASH were linked to cathepsin and/or MMP protease activities.

[3] = test system: proteases in COVID plasma; test: Ex vivo probe cleavage in COVID and healthy K2EDTA and Lithium Heparin plasma; type: biochemical
[4] = test system: carboxylesterase 1, phospholipase A2 and lipoprotein lipase; test: Spiked recombinant enzymes in human plasma with resorufin oleate as substrate; type: biochemical
[5] = test system: proteases in mouse plasma (caspase activity); test: Ex vivo probe cleavage in plasma of Jo2 fulminant hepatitis mice; type: biochemical; conditions: mouse plasma 3 hours after Jo2 injection
Experimental: Fulminant hepatitis is induced after injection intraperitoneal of monoclonal antibody anti-CD95 (Jo2, BD biosciences, 4 ug/animal), and mouse plasma samples were collected 3 hours after Jo2 injection.

[6] = test system: COVID-related proteases in swab samples; test: Ex vivo probe cleavage in COVID positive and negative swab samples; type: biochemical
[7] = target: Granzyme B (Homo sapiens, UniProt P10144); test: Inhibition experiments on Probe #647 signal in COVID swab samples; conditions: healthy and COVID samples
Sequence of Granzyme B (P10144 21-247): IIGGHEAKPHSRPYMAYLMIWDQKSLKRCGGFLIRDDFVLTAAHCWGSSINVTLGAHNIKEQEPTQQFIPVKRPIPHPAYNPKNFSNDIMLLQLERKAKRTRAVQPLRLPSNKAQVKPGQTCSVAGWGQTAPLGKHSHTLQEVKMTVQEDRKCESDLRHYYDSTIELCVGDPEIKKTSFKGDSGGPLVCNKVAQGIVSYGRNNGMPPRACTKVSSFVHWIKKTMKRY

[8] = K2EDTA and Lithium Heparin plasma

Compound: Probe #102: a CTSL sensing probe; fluorescent reporter and quencher peptide probe (chain 1 {FAM}-GKPILFFRLKGK(CPQ2″)[PEG2′]; chain 2 [dK][dK]GC; not fully specified; printed as (FAM)-GKPILFFRLKG-K(CPQ2)-PEG2-kk-GC; also: FAM, place not given here)
- protease that the probe responds to ([1]; individual cathepsin inhibitors, FIG. 30D-F): specifically responds to the activity of cathepsin L (CTSL)
- differentiation among healthy, regression and NASH samples [2]: can differentiate

Compound: Probe #84: Furin substrate (GRVKRGLAGK(CPQ2); not fully specified (N-terminus, C-terminus); also: 5-FAM, PEG2-kk-GC)
- differential cleavage between COVID and healthy samples [3, 8]: demonstrated contrast in both sets

Compound: Probe #409: SARS CoV2 coronavirus substrate (SARS-COV2 3C protease) (GTSAVLQSGFRKGK(CPQ2); not fully specified (N-terminus, C-terminus); also: 5-FAM, PEG2-kk-GC)
- differential cleavage between COVID and healthy samples ([3]; K2 EDTA samples): modest contrast

Compound: CC(C)C[C@H](NC(=O)[C@H]1O[C@@H]1C(=O)O)C(=O)NCCCCN=C(N)N [Probe E64]
- effect of inhibitor on Probe #102 signal [1]: decreased NASH signal significantly

Compound: Probe #428: probe used in NASH regression experiment (chain 1 {FAM}-GDRRKKLTQGK(CPQ2″)[PEG2′]; chain 2 [dK][dK]GC; not fully specified; printed as (FAM)-GDRRKKLTQG-K(CPQ2)-(PEG2)-; also: FAM, place not given here)
- differentiation among healthy, regression and NASH samples [2]: can differentiate

Compound: Resorufin oleate
- suitability as substrate for enzyme detection [4]: promising for detection of broad range of enzymes

Compound: Probe #18: Neutrophil elastase substrate (GAAPVGK(CPQ2); not fully specified (N-terminus, C-terminus); also: 5-FAM, PEG2-kk-GC)
- differential cleavage between COVID and healthy samples [3, 8]: demonstrated contrast in both sets

Compound: Probe #462: MMP8 substrate (GKKAKRNALGK(CPQ2); not fully specified (N-terminus, C-terminus); also: FAM, PEG2-DLys-DLys-GC)
- differential cleavage between COVID and healthy samples [3, 8]: demonstrated contrast in both sets

Compound: Probe #492: ex vivo fluorescent probe used in NASH mouse plasma (chain 1 {FAM}-GQRANSIRVTWGK(CPQ2″)[PEG2′]; chain 2 [dK][dK]GC; not fully specified; printed as (FAM)-GQRANSIRVTWG-K(CPQ2)-(PEG2)-; also: FAM, place not given here)
- differentiation among healthy, regression and NASH samples [2]: can differentiate

Compound: CN1CCN(c2nc(-c3ccc(C(=O)NC4(C(=O)NCC#N)CCCCC4)cc3)cs2)CC1 [Probe L006235]
- effect of inhibitor on Probe #102 signal [1]: did not significantly decrease signal

Compound: Probe #12: Caspase centric probe (chain 1 GDEVDGK; chain 2 KKGC; not fully specified; 5-FAM, CPQ2 quencher, PEG2; Description of Artificial Sequence: Synthetic probe; SITE 7 Lysine modified with a CPQ2 quencher; SITE 1 D-Lysine; SITE 2 D-Lysine)
- differentiation between healthy and Jo2 samples [5]: show contrast that is specific and sensitive to the Jo2 model

Compound: Probe #647: Caspase centric probe; signal measures Granzyme B activity (chain 1 GAIEPDSGGK(CPQ2); chain 2 [dK][dK]GC-NH2; not fully specified (N-terminus, C-terminus); also: 5FAM, PEG2, linkage of the two chains not given here)
- differentiation between healthy and Jo2 samples [5]: show contrast that is specific and sensitive to the Jo2 model
- number of active samples ([6]; COVID+ swab samples): 7
- number of active samples ([6]; COVID- swab samples): 1
- difference between COVID+ and COVID- samples ([6]; swabs in saline, p=0.029): significant differences
- differentiation among healthy, regression and NASH samples [2]: can differentiate
- protease measured by the probe signal [7]: measures the activity of protease Granzyme B

Compound: CCCNC(=O)[C@H]1O[C@@H]1C(=O)N[C@H](C(=O)N1CCC[C@H]1C(=O)O)[C@@H](C)CC [CA074]
- effect of inhibitor on Probe #102 signal [1]: did not significantly decrease signal

Compound: NCCc1ccc(S(=O)(=O)F)cc1 [AEBSF]
- decrease of NASH signal ([1]; Probe #102, 6 uM, NASH plasma): 65%
- decrease of healthy signal ([1]; Probe #102, 6 uM, healthy plasma): 60%

Compound: Probe #8: Caspase centric probe (chain 1 GVDVADGK; chain 2 KKGC; not fully specified; 5-FAM, CPQ2 quencher, PEG2; Description of Artificial Sequence: Synthetic probe; SITE 8 Lysine modified with a CPQ2 quencher; SITE 1 D-Lysine; SITE 2 D-Lysine)
- differentiation between healthy and Jo2 samples [5]: show contrast that is specific and sensitive to the Jo2 model

Compound: CCCC(=O)O [butyrate]
- suitability as substrate for enzyme detection [4]: promising for detection of broad range of enzymes
